Measured values: ChEMBL document CHEMBL1154761 (J Med Chem, 2010)

How the values were obtained:
Beta-secretase 1 [1] = molecular target: T1, Beta-secretase 1 (Homo sapiens, UniProt P56817)
Description: Inhibition of BACE1 mediated human Swedish amyloid precursor protein peptide hydrolysis by HTRF assay

Beta-secretase 1 [2] = molecular target: T1, Beta-secretase 1; test: Inhibition of BACE1 mediated hydrolysis of human amyloid precursor protein with Swedish and London mutation in HEK293 cells by ELISA; format: cell-based
Cathepsin D [3] = molecular target: T2, Cathepsin D (Homo sapiens, UniProt P07339); test: Inhibition of human cathepsin D preincubated for 30 mins
T2 sequence (P07339 65-162 limits assumed): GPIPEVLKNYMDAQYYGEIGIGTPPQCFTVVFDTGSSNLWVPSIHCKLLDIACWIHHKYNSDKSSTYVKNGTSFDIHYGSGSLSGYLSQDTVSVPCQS
T2 sequence (P07339 169-412 limits assumed): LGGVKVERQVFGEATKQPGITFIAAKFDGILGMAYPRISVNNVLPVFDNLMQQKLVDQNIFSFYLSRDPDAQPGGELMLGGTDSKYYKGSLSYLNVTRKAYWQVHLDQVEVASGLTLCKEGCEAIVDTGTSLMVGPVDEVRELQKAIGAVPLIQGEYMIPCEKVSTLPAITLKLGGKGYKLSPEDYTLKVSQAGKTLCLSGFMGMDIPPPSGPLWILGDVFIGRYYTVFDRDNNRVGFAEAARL

in vivo = conditions: rat, plasma, po, 10 mg/kg
[4] = Ratio of drug level in brain to plasma of rat at 10 mg/kg, po; format: ADME, organism-based; set-up: dose 10 mg/kg, route oral
Beta-secretase 1 [5] = molecular target: T1, Beta-secretase 1; test: Inhibition of BACE1 by fragment-based NMR screening method
Beta-secretase 1 [6] = molecular target: T1, Beta-secretase 1; test: Inhibition of BACE1 mediated human Swedish amyloid precursor protein peptide hydrolysis at 500 uM by HTRF assay
[7] = Dissociation constant, pKa of the compound; format: physicochemical
Cathepsin D [8] = molecular target: T2, Cathepsin D; test: Inhibition of human cathepsin D at 50 uM preincubated for 30 mins

T1 sequence (P56817 whole entry): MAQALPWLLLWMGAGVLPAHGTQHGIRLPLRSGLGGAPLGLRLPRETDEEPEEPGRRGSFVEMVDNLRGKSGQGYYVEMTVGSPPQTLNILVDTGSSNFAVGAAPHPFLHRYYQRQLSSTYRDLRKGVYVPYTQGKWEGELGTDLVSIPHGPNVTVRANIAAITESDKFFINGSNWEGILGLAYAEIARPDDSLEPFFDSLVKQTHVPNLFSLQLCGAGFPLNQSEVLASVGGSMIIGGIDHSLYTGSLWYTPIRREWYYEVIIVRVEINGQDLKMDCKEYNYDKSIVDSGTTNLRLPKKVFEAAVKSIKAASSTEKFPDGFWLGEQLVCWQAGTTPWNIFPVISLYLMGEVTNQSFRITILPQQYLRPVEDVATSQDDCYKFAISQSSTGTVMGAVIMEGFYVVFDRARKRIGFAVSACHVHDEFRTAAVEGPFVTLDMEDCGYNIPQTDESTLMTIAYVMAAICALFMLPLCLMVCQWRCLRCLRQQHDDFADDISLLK

SMILES: CN1C(=N)N[C@](CCC2CCCCC2)(CC2CCCCC2)C1=O
- IC50 (Beta-secretase 1 [1]): 0.605 µM
- IC50 (Beta-secretase 1 [2]): 2.6 µM
- Ki (Cathepsin D [3]): 0.74 µM
- AUC (in vivo): 1 µM·h
- Kp [4]: 0.9

SMILES: CCCCNC(=O)NCc1ccc(CN2C(=N)NC(C)(CC3CCCCC3)C2=O)cc1 (racemic)
- IC50 (Beta-secretase 1 [1]): 5 µM

SMILES: CC(C)CC1(C)NC(=N)N(Cc2cccc(Cl)c2)C1=O (stereo not drawn)
- Kd (Beta-secretase 1 [5]): 123 µM
- inhibition (Beta-secretase 1 [6]): 55%
- pKa [7]: 7.2

SMILES: CC(C)CC1(C)C(=O)NC(=N)N1Cc1cccc(Cl)c1 (stereo not drawn)
- inhibition (Beta-secretase 1 [6]): 6%

SMILES: CCCCNC(=O)NCc1ccc(CN2C(=N)NC(CCC3CCCCC3)(CC(C)C)C2=O)cc1 (racemic)
- IC50 (Beta-secretase 1 [1]): 3 µM

SMILES: CCCCNC(=O)NCc1ccc(CN2C(=N)NC(C)(CC(C)C)C2=O)cc1 (stereo not drawn)
- IC50 (Beta-secretase 1 [1]): 78 µM

SMILES: CC(C)CC1(C)NC(=N)N(Cc2ccc(CNC(=O)Nc3ccc(C#N)cc3)cc2)C1=O (racemic)
- IC50 (Beta-secretase 1 [1]): 7 µM

SMILES: CCCCNC(=O)NCc1ccc(CN2C(=N)NC(C)(Cc3ccccc3)C2=O)cc1 (racemic)
- inhibition (Beta-secretase 1 [6]): 64%

SMILES: CCCCNC(=O)NCc1ccc(CN2C(=N)NC(CC3CCCCC3)(CC3CCCCC3)C2=O)cc1
- IC50 (Beta-secretase 1 [1]): 2.1 µM

SMILES: CN1C(=O)C(c2ccccc2)(c2ccccc2)N=C1N
- AUC (in vivo): 5 µM·h
- Kp [4]: 1.8
- inhibition (Cathepsin D [8]): 38%

SMILES: CCCCNC(=O)NCc1ccc(CN2C(=N)NC(CCC3CCCCC3)(CC3CCCCC3)C2=O)cc1 (stereo not drawn)
- IC50 (Beta-secretase 1 [1]): 0.35 µM

SMILES: CC1(C)NC(=N)N(Cc2cccc(Cl)c2)C1=O
- Kd (Beta-secretase 1 [5]): 200 µM
- inhibition (Beta-secretase 1 [6]): 19%

SMILES: CC1(C)C(=O)NC(=N)N1CCc1cccc(Cl)c1
- pKa [7]: 4.4

SMILES: CCCCNC(=O)NCc1ccc(CN2C(=N)NC(CCc3ccccc3)(CC(C)C)C2=O)cc1 (racemic)
- IC50 (Beta-secretase 1 [1]): 50 µM
